Tests used:
[1] = 60 min microsomal stability assay (UPLC-MS/MS), cynomolgus monkey liver microsomes; assay type: in vitro ADME; details: monkey microsomes, 50 µM, 0.6 mg/mL protein, mean ± SD (n = 3)
Protocol: (§1) Rat, beagle (Gibco, Biocenter, Szeged, Hungary), and cynomolgus monkey (Primacyt, Schwerin, Germany) liver microsomes were exposed to inhibitors MI-432, MI-463, MI-482, or MI-1900 at 50 µM for 60 min. The final microsomal protein concentration in the suspension was 0.6 mg/mL in each case. The reaction buffer (100 mM phosphate buffer pH 7.4) also contained 1 mM nicotinamide adenine dinucleotide phosphate (NADPH), 5 mM MgCl2, 10 mM glucose-6-phosphate (G6P), and 2 IU/mL glucose-6-phosphate dehydrogenase (G6PD). The reaction was terminated by the addition of ice-cold acetonitrile (ACN) with the ratio of sample ACN volume = 1:2. The precipitated protein was removed by centrifugation at 10,000× g for 10 min, and the supernatants were used for subsequent analyses.
(§2) The determination of all analytes was carried out using an UPLC/MS/MS system, which consisted of an HPLC apparatus (SCIEX ExionLC^TM UPLC, Framigham, MA, USA) and a SCIEX Qtrap 4500 triple-quadrupole mass spectrometer (Framigham, MA, USA) equipped with a SCIEX Turbo V electrospray ionization source. The HPLC columns used were LiChrospher RP Select B (125 × 4.0 mm, 5.0 μm, C8 stationary phase). Next, 0.1% trifluoroacetic acid in ultra-purified water (A) and acetonitrile (B) were used as mobile phases for chromatographic separations applying a gradient elution. The HPLC gradient program was the following: between 0 and 10 min, a ratio of 70% A and 30% B; from 10 to 20 min, linearly increasing to a ratio of 50% A and 50% B; from 20 to 21 min, maintained at a ratio of 50% A and 50% B; from 21 to 22 min, linearly decreasing back to a ratio of 70% A and 30% B; and between 22 min and 30 min, maintained at a ratio of 70% A and 30% B. The run time was 30 min, the column temperature was adjusted to 35 °C, and the flow rate was 1 mL/min.

[2] = target: T1, CYP1A2 (Macaca fascicularis, UniProt O77809); experiment: CYP1A2 fluorometric activity assay in cynomolgus monkey hepatic microsomes; assay type: in vitro ADME; set-up: cynomolgus monkey microsomal suspension (Primacyt, Schwerin, Germany, protein concentration: 5 mg/mL); tissue Primacyt, Schwerin, Germany; host or cells: liver (hepatic microsomes); details: for CYP1A2 in the cynomolgus monkey microsomal model: inhibitors at 50 µM
T1 sequence (O77809 1-516): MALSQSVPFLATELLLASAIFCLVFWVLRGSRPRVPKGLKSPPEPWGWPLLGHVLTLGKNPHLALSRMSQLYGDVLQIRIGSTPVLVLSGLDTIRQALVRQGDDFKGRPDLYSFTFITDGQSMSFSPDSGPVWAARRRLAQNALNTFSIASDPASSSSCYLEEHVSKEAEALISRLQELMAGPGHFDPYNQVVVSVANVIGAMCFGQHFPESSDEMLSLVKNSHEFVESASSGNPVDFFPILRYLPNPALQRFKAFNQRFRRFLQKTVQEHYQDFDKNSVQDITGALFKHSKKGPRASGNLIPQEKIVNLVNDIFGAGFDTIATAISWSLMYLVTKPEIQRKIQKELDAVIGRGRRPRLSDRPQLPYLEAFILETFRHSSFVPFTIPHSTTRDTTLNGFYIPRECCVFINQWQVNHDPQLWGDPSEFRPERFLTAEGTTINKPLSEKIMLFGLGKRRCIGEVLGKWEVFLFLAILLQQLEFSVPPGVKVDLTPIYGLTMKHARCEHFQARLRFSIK
Protocol: (§3) The Biovision CYP assay (BioVision, Inc., Kampenhout, Belgium) utilizes a non-fluorescent CYP1A2 substrate capable of transforming into a highly fluorescent metabolite, which can be detected in the visible range. α-naphthoflavone was used as a CYP1A2 reference inhibitor at 6 µM during the experiments. Rat (Sprague–Dawley) and beagle (Gibco, Biocenter, Szeged, Hungary, protein concentration: 20 mg/mL) hepatic microsomal preparations were prepared separately by mixing 25 µL of the obtained rat or beagle microsomal suspension with 2425 µL assay buffer and with 50 µL NADPH generating system (100×). In the case of the cynomolgus monkey microsomal suspension (Primacyt, Schwerin, Germany, protein concentration: 5 mg/mL), the following volumes were applied: in addition to 100 µL of monkey microsomal suspension, the amount of assay buffer and the NADPH generating system were adjusted in order to ensure the original ratios of these components to reach a final volume of 2500 µL. Rat, beagle, and cynomolgus monkey microsomal suspension aliquots (50 µL) were treated with the protease inhibitor 20 µL, 0–1000 µM), the reference compound α-naphthoflavone (20 µL, 30 µM), or the assay buffer without test compounds (20 µL, background control) for 15 min at 37 °C. After incubation, 30 µL of the appropriate CYP1A2 substrate/NADP+ mixture was added to each well, yielding a final reaction volume of 100 µL/well. The protein contents of the obtained microsomes were analysed using bicinchoninic acid protein assay kit (Pierce BCA kit, Thermo Fisher Scientific, Waltham, MA, USA). […] The fluorescence intensities were measured with a fluorometer (Victor X2 2030, Perkin Elmer, Waltham, MA, USA), using λEx/Em = 406/468 nm.

[3] = 60 min microsomal stability assay (UPLC-MS/MS), beagle liver microsomes; assay type: in vitro ADME; details: beagle microsomes, 50 µM, 0.6 mg/mL protein, mean ± SD (n = 3)
Protocol: as §1, §2

[4] = target: T2, CYP1A2 (Rattus norvegicus, UniProt P04799); experiment: CYP1A2 fluorometric activity assay in rat hepatic microsomes; assay type: in vitro ADME, rat (Sprague–Dawley); set-up: Rat (Sprague–Dawley) and beagle (Gibco, Biocenter, Szeged, Hungary, protein concentration: 20 mg/mL) hepatic microsomal preparations; tissue Gibco, Biocenter, Szeged, Hungary; host or cells: liver (hepatic microsomes), Sprague-Dawley rat; details: 15 min at 37 °C
T2 sequence (P04799 1-513): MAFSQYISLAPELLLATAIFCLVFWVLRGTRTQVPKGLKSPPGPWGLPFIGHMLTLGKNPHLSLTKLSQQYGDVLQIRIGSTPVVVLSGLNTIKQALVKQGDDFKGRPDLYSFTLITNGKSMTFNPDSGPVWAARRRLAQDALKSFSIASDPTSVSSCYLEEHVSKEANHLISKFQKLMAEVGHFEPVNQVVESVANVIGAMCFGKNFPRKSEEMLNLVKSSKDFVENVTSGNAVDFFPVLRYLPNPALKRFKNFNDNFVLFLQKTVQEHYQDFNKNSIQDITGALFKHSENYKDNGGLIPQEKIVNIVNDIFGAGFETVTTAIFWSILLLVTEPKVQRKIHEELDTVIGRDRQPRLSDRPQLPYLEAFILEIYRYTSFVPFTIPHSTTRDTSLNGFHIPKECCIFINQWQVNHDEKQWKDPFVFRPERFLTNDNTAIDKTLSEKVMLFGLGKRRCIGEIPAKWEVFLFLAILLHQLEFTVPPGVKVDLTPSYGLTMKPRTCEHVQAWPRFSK
Protocol: as §3

[5] = 60 min microsomal stability assay (UPLC-MS/MS), rat liver microsomes; assay type: in vitro ADME; details: rat microsomes, 50 µM, 0.6 mg/mL protein, mean ± SD (n = 3)
Protocol: as §1, §2

[6] = target: T3, CYP1A2 (Canis lupus familiaris, UniProt P56592); experiment: CYP1A2 fluorometric activity assay in beagle hepatic microsomes; assay type: in vitro ADME; details: 15 min at 37 °C
T3 construct: endogenous in cells; host or cells: beagle hepatocytes
T3 sequence (P56592 1-512): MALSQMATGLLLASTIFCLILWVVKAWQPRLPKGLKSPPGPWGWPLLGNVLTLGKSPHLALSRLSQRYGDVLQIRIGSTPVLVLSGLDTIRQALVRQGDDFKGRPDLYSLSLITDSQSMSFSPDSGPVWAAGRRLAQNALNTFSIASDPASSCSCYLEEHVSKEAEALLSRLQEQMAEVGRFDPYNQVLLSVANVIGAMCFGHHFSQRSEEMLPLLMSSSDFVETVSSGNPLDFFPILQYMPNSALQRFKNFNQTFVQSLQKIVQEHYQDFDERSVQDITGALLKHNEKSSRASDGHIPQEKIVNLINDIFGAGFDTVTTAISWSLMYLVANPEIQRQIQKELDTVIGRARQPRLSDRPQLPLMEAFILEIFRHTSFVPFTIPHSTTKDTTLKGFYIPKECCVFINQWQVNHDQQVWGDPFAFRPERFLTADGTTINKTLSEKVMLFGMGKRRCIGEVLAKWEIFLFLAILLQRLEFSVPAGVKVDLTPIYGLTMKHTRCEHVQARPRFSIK
Protocol: as §3

[7] = target: T1, CYP1A2; details: 10 µM
Protocol: (§4) For the measurements of CYP1A2 activities, hepatocytes were grown on 24-well collagen-coated membrane inserts (Costar Transwell-PTFE membrane, 6.5 mm, pore size: 0.4 µm, Merck, Darmstadt, Germany). […] The determination of the CYP1A2 activities were performed using the P450-Glo CYP450 Assay (Promega, Madison, WI, USA) according to the manufacturer’s instructions.

[8] = target: T2, CYP1A2; experiment: CYP1A2 luminescent (P450-Glo) activity assay in rat hepatocytes; assay type: cell-based; set-up: endogenous in cells; host or cells: rat hepatocytes; details: positive control at 10 µM
Protocol: as §4

[9] = target: T3, CYP1A2; assay type: cell-based; details: dog, 10 µM
Protocol: as §4

[10] = inhibitors at 50 µM, vs untreated control

| SMILES | depletion percentage of the parent compound [1] [%] | IC50 [2] [nM] | CYP1A2 in the cynomolgus monkey microsomal model [2] | depletion percentage of the parent compound [3] [%] | rat hepatic microsomal CYP1A2 isoenzyme activity [4, 10] | depletion percentage of the parent compound [5] [%] | beagle hepatic microsomal CYP1A2 isoenzyme activity [6, 10] | CYP1A2 activity in cynomolgus monkey hepatocytes [7] | rat hepatic microsomal CYP1A2 isoenzyme activity ([4]; reference inhibitor at 6 µM) | CYP1A2 activity in rat hepatocytes [8] | CYP1A2 activity in beagle hepatocytes [9] | beagle hepatic microsomal CYP1A2 isoenzyme activity ([6]; reference inhibitor at 6 µM) |
| --- | --- | --- | --- | --- | --- | --- | --- | --- | --- | --- | --- | --- |
| COc1ccc(-c2cccc(S(=O)(=O)N[C@@H](Cc3cccc(C(=N)N)c3)C(=O)N3CCC(NC(=O)NC4CCCCC4)CC3)c2)c(OC)c1 [MI-463] | 17.7 ± 4.6 | 2400 ± 1400 | inhibited | 15.7 ± 8 | suppressed | 15.1 ± 6.5 |  |  |  |  |  |  |
| N=C(N)c1cccc(C[C@H](NS(=O)(=O)c2cccc(-c3cc(CO)ccc3Cl)c2)C(=O)N2CCC(CCNC(=O)NC3CCCCC3)CC2)c1 [MI-482] | 15.1 ± 7.3 | 210 ± 90 | inhibited | 39.3 ± 6 | did not inhibit CYP1A2 function | 31.4 ± 1.1 | reduced the activity of CYP1A2 |  |  |  |  |  |
| O=c1cc(-c2ccccc2)oc2c1ccc1ccccc12 [α-naphthoflavone, reference compound] |  |  |  |  |  |  |  | significantly suppress CYP1A2 activities | significantly suppressed CYP1A2 activities | significantly suppress CYP1A2 activities | significantly suppress CYP1A2 activities | significantly suppressed CYP1A2 activities |

From PMC9027957, “Interspecies Comparisons of the Effects of Potential Antiviral 3-Amidinophenylalanine Derivatives on Cytochrome P450 1A2 Isoenzyme” (Veterinary Sciences, 2022)
